Values quoted from earlier work as cited in US10980792B2, “Formulations of Cabozantinib” (Zhuhai Beihai Biotech Co., Ltd., priority 2016, dated 2021).

How the values were obtained:
[1] = test system: human plasma

protein bound in human plasma [1]: ≥ 99.7%
solubility in water: practically insoluble
SMILES: COc1cc2nccc(Oc3ccc(NC(=O)C4(C(=O)Nc5ccc(F)cc5)CC4)cc3)c2cc1OC [Cabozantinib, cabozantinib]
